What was measured:
erythrocytes = assay: In vitro competition studies with zonisamide and topiramate in whole blood; assay type: in vitro ADME, human; conditions: not influenced by the addition of sultiame; data not shown
Description: In addition, competition studies were performed with two other antiepileptic agents known for their affinity for CA (zonisamide and topiramate), added at equimolar concentration to 20 mg/L of sultiame. Similar ranges of inhibition constants for CA II were reported in the literature for these three substances.13 Samples (1 mL) were drawn before and at 2, 4, 6, 8, 10, 15, 20, 30, 45, 60, and 120 min after addition of the competitor. Sultiame, zonisamide, and topiramate concentrations were then analyzed. All samples were centrifuged at 18 620 g for 1 minutes at 4°C. Plasma, erythrocyte, and urine fractions were stored separately at − 80°C prior to analysis for a maximum of 9 months. For analysis, plasma and hemolyzed erythrocytes samples were subjected to protein precipitation with MeOH containing the internal‐standard sultiame D4 and quantified with the previously described HPLC‐MS/MS method, using matrix‐matched calibration and quality controls. The sultiame concentrations determined in erythrocytes were corrected for the 10% interstitial plasma remnant in the erythrocyte fraction after centrifugation.14

[1] = set-up: method as in earlier work; conditions: main metabolite identified in urines ref 8; cited from earlier work

Compound	erythrocyte/plasma ratio (erythrocytes)	activity of metabolite [1]
CC1(C)O[C@@H]2[C@@H](CO[C@@]3(COS(N)(=O)=O)OC(C)(C)O[C@@H]23)O1 [topiramate]	~1	–
hydroxy‐sultiame	–	inactive
